Measured values published in ChEMBL document CHEMBL1201862, “PubChem BioAssay data set” (2004).
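Grown in 96-well plates, cells were treated for 48 hours with each compound at five concentrations. Insufficient inhibition: endpoint recorded as highest concentration tested. GI50 marks 50% less growth.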 The source made the active and inactive calls. No stated cut-off is given here; in the data, active = GI50 up to about 1.1 µM and inactive = higher.

How the values were obtained:
Experiment in all cases: growth of human tumour cells (NCI), 48 h
HCC 2998 = tested on: HCC 2998
HOP-62 = tested on: HOP-62
MOLT-4 = tested on: MOLT-4
HCT-15 = tested on: HCT-15
SK-MEL-5 = tested on: SK-MEL-5
SW-620 = tested on: SW-620
SNB-75 = tested on: SNB-75
SF-295 = tested on: SF-295
HCT-116 = tested on: HCT-116
SK-MEL-28 = tested on: SK-MEL-28
U-251 = tested on: U-251
XF498 = tested on: XF498
HT-29 = tested on: HT-29
SNB-19 = tested on: SNB-19
CCRF-CEM = tested on: CCRF-CEM
Malme-3M = tested on: Malme-3M
K562 = tested on: K562
IGROV-1 = tested on: IGROV-1
OVCAR-3 = tested on: OVCAR-3
OVCAR-4 = tested on: OVCAR-4
KM12 = tested on: KM12
M19-MEL = tested on: M19-MEL
RPMI-8226 = tested on: RPMI-8226
UO-31 = tested on: UO-31
SF-539 = tested on: SF-539
M14 = tested on: M14
EKVX = tested on: EKVX
DLD-1 = tested on: DLD-1
SK-MEL-2 = tested on: SK-MEL-2
786-0 = tested on: 786-0
NCI-H522 = tested on: NCI-H522
A498 = tested on: A498
DMS-114 = tested on: DMS-114
UACC-257 = tested on: UACC-257
UACC-62 = tested on: UACC-62
OVCAR-5 = tested on: OVCAR-5
OVCAR-8 = tested on: OVCAR-8
SK-OV-3 = tested on: SK-OV-3
SR = tested on: SR
NCI-H226 = tested on: NCI-H226
SN12C = tested on: SN12C
LXFL 529 = tested on: LXFL 529
HOP-92 = tested on: HOP-92
LOX IMVI = tested on: LOX IMVI
HOP-18 = tested on: HOP-18
NCI-H460 = tested on: NCI-H460
A549 = tested on: A549
COLO 205 = tested on: COLO 205
SF-268 = tested on: SF-268
RXF 393 = tested on: RXF 393
RXF 631 = tested on: RXF 631
DMS-273 = tested on: DMS-273
HL-60 = tested on: HL-60
ACHN = tested on: ACHN
NCI-H23 = tested on: NCI-H23
TK-10 = tested on: TK-10
CAKI-1 = tested on: CAKI-1
SNB-78 = tested on: SNB-78
KM-20L2 = tested on: KM-20L2

## Cc1cc2c(C(C)C)c(O)c(O)c(/C=N\CCO)c2c(O)c1-c1c(C)cc2c(C(C)C)c(O)c(O)c(/C=N/CCO)c2c1O
HCC 2998
  GI50: 2.9 µM (inactive)
HOP-62
  GI50: 2.6 µM (inactive)
MOLT-4
  GI50: 0.527 µM (active)
HCT-15
  GI50: 1.51 µM
SK-MEL-5
  GI50: 1.73 µM (inactive)
SW-620
  GI50: 3.83 µM (inactive)
SNB-75
  GI50: 2.67 µM (inactive)
SF-295
  GI50: 2.15 µM (inactive)
HCT-116
  GI50: 1.67 µM (inactive)
SK-MEL-28
  GI50: 1.67 µM (inactive)
U-251
  GI50: 1.21 µM (inactive)
XF498
  GI50: 2.87 µM (inactive)
HT-29
  GI50: 2.28 µM (inactive)
SNB-19
  GI50: 2.05 µM (inactive)
CCRF-CEM
  GI50: 0.653 µM (active)
Malme-3M
  GI50: 2.47 µM (inactive)
K562
  GI50: 1.02 µM (active)
IGROV-1
  GI50: 1.91 µM (inactive)
OVCAR-3
  GI50: 2.02 µM (inactive)
OVCAR-4
  GI50: 3.6 µM (inactive)
KM12
  GI50: 0.74 µM (active)
M19-MEL
  GI50: 1.86 µM (inactive)
RPMI-8226
  GI50: 1.19 µM (inactive)
UO-31
  GI50: 3.44 µM (inactive)
SF-539
  GI50: 2.54 µM (inactive)
M14
  GI50: 1.83 µM (inactive)
EKVX
  GI50: 2.28 µM (inactive)
DLD-1
  GI50: 3.33 µM (inactive)
SK-MEL-2
  GI50: 3.15 µM (inactive)
786-0
  GI50: 2.1 µM (inactive)
NCI-H522
  GI50: 2.04 µM (inactive)
A498
  GI50: 3.36 µM (inactive)
DMS-114
  GI50: 1.23 µM (inactive)
UACC-257
  GI50: 2.32 µM (inactive)
UACC-62
  GI50: 2.74 µM (inactive)
OVCAR-5
  GI50: 3.66 µM (inactive)
OVCAR-8
  GI50: 3.3 µM (inactive)
SK-OV-3
  GI50: 3.37 µM (inactive)
SR
  GI50: 1.1 µM (active)
NCI-H226
  GI50: 2.51 µM (inactive)
SN12C
  GI50: 2.84 µM (inactive)
LXFL 529
  GI50: 1.64 µM (inactive)
HOP-92
  GI50: 1.75 µM (inactive)
LOX IMVI
  GI50: 1.64 µM (inactive)
HOP-18
  GI50: 1.91 µM (inactive)
NCI-H460
  GI50: 1.12 µM (active)
A549
  GI50: 1.21 µM (inactive)
COLO 205
  GI50: 1.63 µM (inactive)
SF-268
  GI50: 1.39 µM (inactive)
RXF 393
  GI50: 3.56 µM (inactive)
RXF 631
  GI50: 2.33 µM (inactive)
DMS-273
  GI50: 1.62 µM (inactive)
HL-60
  GI50: 2.43 µM (inactive)
ACHN
  GI50: 3.37 µM (inactive)
NCI-H23
  GI50: 1.76 µM (inactive)
TK-10
  GI50: 6.4 µM (inactive)
CAKI-1
  GI50: 5.24 µM (inactive)
SNB-78
  GI50: 3.24 µM (inactive)

## C=C1C2=C(CCCC2)C(=O)OC12CCCCC2
HCC 2998
  GI50: > 100 µM (inactive)
HOP-62
  GI50: > 100 µM (inactive)
MOLT-4
  GI50: 38.5 µM (inactive)
HCT-15
  GI50: 60.1 µM
SK-MEL-5
  GI50: 38 µM (inactive)
SW-620
  GI50: > 100 µM (inactive)
KM-20L2
  GI50: > 100 µM (inactive)
SNB-75
  GI50: 23.8 µM (inactive)
SF-295
  GI50: 57.7 µM (inactive)
HCT-116
  GI50: 47.1 µM (inactive)
SK-MEL-28
  GI50: 79.4 µM (inactive)
U-251
  GI50: 73.6 µM (inactive)
XF498
  GI50: 97.5 µM (inactive)
HT-29
  GI50: 59.4 µM (inactive)
SNB-19
  GI50: > 100 µM (inactive)
CCRF-CEM
  GI50: 51.4 µM (inactive)
Malme-3M
  GI50: 51.3 µM (inactive)
K562
  GI50: 45.2 µM (inactive)
IGROV-1
  GI50: 88.9 µM (inactive)
OVCAR-3
  GI50: 43.5 µM (inactive)
OVCAR-4
  GI50: 98.2 µM (inactive)
KM12
  GI50: 85.5 µM (inactive)
M19-MEL
  GI50: 46.5 µM (inactive)
RPMI-8226
  GI50: 35.5 µM (inactive)
UO-31
  GI50: 35.1 µM (inactive)
SF-539
  GI50: > 100 µM (inactive)
M14
  GI50: > 100 µM (inactive)
EKVX
  GI50: 52.1 µM (inactive)
DLD-1
  GI50: 92.7 µM (inactive)
SK-MEL-2
  GI50: 70.3 µM (inactive)
786-0
  GI50: > 100 µM (inactive)
NCI-H522
  GI50: 35.5 µM (inactive)
DMS-114
  GI50: 29.5 µM (inactive)
UACC-257
  GI50: 52.1 µM (inactive)
UACC-62
  GI50: 56.9 µM (inactive)
OVCAR-5
  GI50: 79.8 µM (inactive)
OVCAR-8
  GI50: > 100 µM (inactive)
SK-OV-3
  GI50: > 100 µM (inactive)
SR
  GI50: 38.9 µM (inactive)
NCI-H226
  GI50: 93.8 µM (inactive)
SN12C
  GI50: > 100 µM (inactive)
LXFL 529
  GI50: 40.7 µM (inactive)
HOP-92
  GI50: 19.5 µM (inactive)
LOX IMVI
  GI50: 66.4 µM (inactive)
HOP-18
  GI50: > 100 µM (inactive)
NCI-H460
  GI50: 91.4 µM (inactive)
A549
  GI50: 49.3 µM (inactive)
COLO 205
  GI50: 51.2 µM (inactive)
SF-268
  GI50: 86.1 µM (inactive)
RXF 393
  GI50: 56.5 µM (inactive)
RXF 631
  GI50: 72.1 µM (inactive)
DMS-273
  GI50: 51.4 µM (inactive)
HL-60
  GI50: 27.1 µM (inactive)
ACHN
  GI50: 40.9 µM (inactive)
NCI-H23
  GI50: 36.9 µM (inactive)
TK-10
  GI50: > 100 µM (inactive)
